# Literature values, collected in US20180136238A1 (priority 2016, published 2018).
# Like-named read-outs stand apart in the source and are kept apart here.
# Columns and labels:
# [1] = in vivo
# [2] = blood, equilibrium of bicarbonate complex with protein bound uranyl ions
compound,measurement,setting,value
[CH3][Hg][CH3] [dimethyl mercury],LD50 dose,[1],0.015 mg/kg
[Hg+2].[S-2] [mercuric sulfide],LD50 dose,[1],"~100,000.0 mg/kg"
[U] [uranium],uranium in blood bicarbonate-formed,[2],60%
same,uranium in blood protein-formed,[2],40%
same,uranium in blood associated with red blood cells,other studies,20%
same,uranium in blood present in the inorganic compartment of plasma,other studies,74%
same,uranium in blood protein-formed,other studies,32%
arsenic,LD50 dose,[1],14 mg/kg
